# Reference: US11427615B2, “Peptide compound and application thereof, and composition containing peptide compound” (XDCEXPLORER (SHANGHAI) CO., LTD., priority 2017, dated 2022)
# Non-standard residues stand in square brackets, D forms with d. Residues, ends and D or L forms follow the SMILES beside them. *: point of attachment. Phe(4-tBu) = CC(C)(C)c1ccc(C[C@H](N)C(=O)O)cc1; Dnp = O=[N+]([O-])c1ccc(*)c([N+](=O)[O-])c1; Dip = N[C@H](C(=O)O)C(c1ccccc1)c1ccccc1; Phe(4-Me) = Cc1ccc(C[C@H](N)C(=O)O)cc1; Pro(4,4-F2) = O=C(O)[C@@H]1CC(F)(F)CN1; Pro(4R-NH2) = N[C@H]1CN[C@H](C(=O)O)C1; 2Nal = N[C@@H](Cc1ccc2ccccc2c1)C(=O)O; Arg(Me) = CNC(=N)NCCC[C@H](N)C(=O)O; Hyp = O=C(O)[C@@H]1C[C@@H](O)CN1; NMeL = CN[C@@H](CC(C)C)C(=O)O; Pip = O=C(O)[C@@H]1CCCCN1; Dap = NC[C@H](N)C(=O)O; azaGly = NNC(=O)O; βAla = NCCC(=O)O
# Biological target: T1, human kiss1 receptor (GPR54) (Homo sapiens, UniProt Q969F8)
# T1 construct: host or cells: NFAT-bla CHO-K1 cells (Chinese hamster ovary), purchased recombinant cell line
# T1 sequence (Q969F8 whole entry): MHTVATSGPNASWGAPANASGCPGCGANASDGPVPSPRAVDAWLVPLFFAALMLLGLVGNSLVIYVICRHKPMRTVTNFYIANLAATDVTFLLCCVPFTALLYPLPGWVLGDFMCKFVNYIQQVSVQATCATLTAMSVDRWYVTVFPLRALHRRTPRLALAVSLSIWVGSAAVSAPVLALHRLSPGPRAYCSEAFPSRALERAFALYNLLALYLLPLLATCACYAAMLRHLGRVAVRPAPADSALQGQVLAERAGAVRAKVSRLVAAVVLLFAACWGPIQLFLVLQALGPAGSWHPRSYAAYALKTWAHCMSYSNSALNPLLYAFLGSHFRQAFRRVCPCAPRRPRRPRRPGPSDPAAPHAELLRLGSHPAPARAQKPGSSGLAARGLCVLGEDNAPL
# Test: Kiss1 receptor (GPR54) binding activity of agonists, FRET detection in NFAT-bla CHO-K1 cells
# Type: cell-based
# Details: GPR54; measured according to the method of effect Embodiment 1; preliminary data; read-out: Preliminary measurement data (GPR54) EC50
row,SMILES,EC50 [nM]
1,"CNC(=N)NCCC[C@H](NC(=O)[C@H](CC(C)C)NC(=O)NNC(=O)[C@H](Cc1ccccc1)NC(=O)[C@@H](NC(=O)[C@H](CC(N)=O)NC(=O)[C@@H]1C[C@@H](O)CN1C(=O)[C@H](Cc1ccc(OC)cc1)NC(C)=O)[C@@H](C)O)C(=O)N[C@@H](Cc1c[nH]c2ccccc12)C(N)=O [YA-73, Ac-Tyr(Me)-Hyp-Asn-Thr-Phe-azaGly-Leu-Arg(Me)-Trp-NH2] (Ac-Y(Me)[Hyp]NTF[azaGly]L[Arg(Me)]W-NH2)",1.32
2,"CNC(=N)NCCC[C@H](NC(=O)[C@H](CC(C)C)NC(=O)NNC(=O)[C@H](Cc1ccccc1)NC(=O)[C@@H](NC(=O)[C@H](CC(N)=O)NC(=O)[C@@H]1C[C@@H](O)CN1C(=O)[C@H](Cc1ccc(C)cc1)NC(C)=O)[C@@H](C)O)C(=O)N[C@@H](Cc1c[nH]c2ccccc12)C(N)=O [YA-74, Ac-Phe(4-Me)-Hyp-Asn-Thr-Phe-azaGly-Leu-Arg(Me)-Trp-NH2] (Ac-[Phe(4-Me)][Hyp]NTF[azaGly]L[Arg(Me)]W-NH2)",0.921
3,"CNC(=N)NCCC[C@H](NC(=O)[C@H](CC(C)C)NC(=O)NNC(=O)[C@H](Cc1ccccc1)NC(=O)[C@@H](NC(=O)[C@H](CC(N)=O)NC(=O)[C@@H]1C[C@@H](O)CN1C(=O)[C@H](Cc1ccc(C(C)(C)C)cc1)NC(C)=O)[C@@H](C)O)C(=O)N[C@@H](Cc1c[nH]c2ccccc12)C(N)=O [YA-75, Ac-Phe(4-tBu)-Hyp-Asn-Thr-Phe-azaGly-Leu-Arg(Me)-Trp-NH2] (Ac-[Phe(4-tBu)][Hyp]NTF[azaGly]L[Arg(Me)]W-NH2)",18.7
4,"CNC(=N)NCCC[C@H](NC(=O)[C@H](CC(C)C)NC(=O)NNC(=O)[C@H](Cc1ccccc1)NC(=O)[C@@H](NC(=O)[C@H](CC(N)=O)NC(=O)[C@@H]1CC(F)(F)CN1C(=O)[C@@H](Cc1ccc(O)cc1)NC(C)=O)[C@@H](C)O)C(=O)N[C@@H](Cc1c[nH]c2ccccc12)C(N)=O [YA-80, Ac-D-Tyr-Pro(diF)-Asn-Thr-Phe-azaGly-Leu-Arg(Me)-Trp-NH2] (Ac-[dY][Pro(4,4-F2)]NTF[azaGly]L[Arg(Me)]W-NH2)",0.007
5,"CNC(=N)NCCC[C@H](NC(=O)[C@H](CC(C)C)NC(=O)NNC(=O)[C@H](Cc1ccccc1)NC(=O)[C@@H](NC(=O)[C@H](CC(N)=O)NC(=O)[C@@H]1C[C@@H](O)CN1C(=O)[C@@H](Cc1ccc(O)cc1)NC(C)=O)[C@@H](C)O)C(=O)N[C@@H](Cc1ccc2ccccc2c1)C(N)=O [YA-81, Ac-D-Tyr-Hyp-Asn-Thr-Phe-azaGly-Leu-Arg(Me)-2Nal-NH2] (Ac-[dY][Hyp]NTF[azaGly]L[Arg(Me)][2Nal]-NH2)",0.011
6,"CNC(=N)NCCC[C@H](NC(=O)[C@H](CC(C)C)N(C)C(=O)CCNC(=O)[C@H](Cc1ccccc1)NC(=O)[C@@H](NC(=O)[C@H](CC(N)=O)NC(=O)[C@@H]1C[C@@H](O)CN1C(=O)[C@@H](Cc1ccc(O)cc1)NC(C)=O)[C@@H](C)O)C(=O)N[C@@H](Cc1c[nH]c2ccccc12)C(N)=O [YA-82, Ac-(D-Tyr)-Hyp-Asn-Thr-Phe-BetaAla-(NMe-Leu)-Arg(Me)-Trp-NH2] (Ac-[dY][Hyp]NTF[βAla][NMeL][Arg(Me)]W-NH2)",2.79
7,"CNC(=N)NCCC[C@H](NC(=O)[C@H](CC(C)C)NC(=O)NNC(=O)[C@H](Cc1ccccc1)NC(=O)[C@@H](NC(=O)[C@H](CC(N)=O)NC(=O)[C@@H]1C[C@@H](N)CN1C(=O)[C@@H](Cc1ccc(O)cc1)NC(C)=O)[C@@H](C)O)C(=O)N[C@@H](Cc1c[nH]c2ccccc12)C(N)=O [YA-83, Ac-D-Tyr-Pro(4-NH2)-Asn-Thr-Phe-azaGly-Leu-Arg(Me)-Trp-NH2] (Ac-[dY][Pro(4R-NH2)]NTF[azaGly]L[Arg(Me)]W-NH2)",0.008
8,"CNC(=N)NCCC[C@H](NC(=O)[C@H](CC(C)C)NC(=O)NNC(=O)[C@H](Cc1ccccc1)NC(=O)[C@@H](NC(=O)[C@H](CC(N)=O)NC(=O)[C@@H]1CCCCN1C(=O)[C@@H](Cc1ccc(O)cc1)NC(C)=O)[C@@H](C)O)C(=O)N[C@@H](Cc1c[nH]c2ccccc12)C(N)=O [YA-85, Ac-D-Tyr-(S-Pip)-Asn-Thr-Phe-azaGly-Leu-Arg(Me)-Trp-NH2] (Ac-[dY][Pip]NTF[azaGly]L[Arg(Me)]W-NH2)",0.026
9,"CNC(=N)NCCC[C@H](NC(=O)[C@H](CC(C)C)NC(=O)NNC(=O)[C@H](Cc1ccccc1)NC(=O)[C@@H](NC(=O)[C@H](CC(N)=O)NC(=O)[C@@H]1C[C@@H](O)CN1C(=O)[C@@H](NC(C)=O)C(c1ccccc1)c1ccccc1)[C@@H](C)O)C(=O)N[C@@H](Cc1c[nH]c2ccccc12)C(N)=O [YA-132, Ac-Ala(dip)-Hyp-Asn-Thr-Phe-azaGly-Leu-Arg(Me)-Trp-NH2] (Ac-[Dip][Hyp]NTF[azaGly]L[Arg(Me)]W-NH2)",0.19

# Same assay, conditions: Preliminary measurement data (GPR54) EC50, nM), GPR54; measured according to the method of effect Embodiment 1; preliminary data
row,SMILES,EC50 [nM]
1,"CNC(=N)NCCC[C@H](NC(=O)[C@H](CC(C)C)NC(=O)NNC(=O)[C@H](Cc1ccccc1)NC(=O)[C@@H](NC(=O)[C@H](CC(N)=O)NC(=O)[C@@H]1C[C@@H](O)CN1C(=O)[C@H](CNc1ccc([N+](=O)[O-])cc1[N+](=O)[O-])NC(C)=O)[C@@H](C)O)C(=O)N[C@@H](Cc1c[nH]c2ccccc12)C(N)=O [YA-41, Ac-Dap(Dnp)-Hyp-Asn-Thr-Phe-azaGly-Leu-Arg(Me)-Trp-NH2] (Ac-[Dap](Dnp)[Hyp]NTF[azaGly]L[Arg(Me)]W-NH2)",0.095
